The test system of data set [1] is SOD1 transgenic mice. The note with it: for Mean Survival: drinking water from 60 days of age, N=15. As for the experimental part:
(§1) Another group of 15 mice served as controls.
(§2) The drugs were administered by drinking water starting at 60 days of age. The daily dosages were calculated based on a daily water intake of 6 ml. Fresh solutions were prepared once a week with the total consumed volume measured in order to ensure a constant daily and weekly dose. […] The study was done blindly, meaning that the treatment and the preparation of the drugs were conducted by separate individuals.
The clinical condition of the mice was monitored daily starting at 40 days. The onset of clinical signs was scored by examining the mice for tremors and/or shaking of the limbs, and the position of one or both hind limbs (hanging rather than splaying out) when the mice were suspended in the air by their tail. The age of clinical onset was determined by the age (days) at which loss of splay or tremors of hind limbs were observed. Examining the mice for the loss of righting reflex determined the end stage of the disease. The mice were sacrificed if they could not right themselves within 30 seconds when placed on either side on a flat surface. This decision was made by an independent veterinarian as requested by the animal protocol. The treatment protocol was approved by the Regierungspräsident Tübingen (35/9185.81-3). The treatment and clinical evaluation were conducted by separate individuals, and thus the neurological signs for determining onset and end stage of disease were scored in a blinded manner.
(§3) Data are expressed as the mean +/−standard error of the mean (SEM). Rotarod testing and weight were compared by analysis of variance (ANOVA). Survival data were analysed by the Mantel-Cox proportional hazard model. Statistical significance was tested by one-way ANOVA followed by post-hoc Student-Newman-Keuls comparison with the SPSS-PC software program (SPSS, Chicago Ill.).

Data set [2] has as its system SOD1 transgenic mice. The following applies: mouse, in vivo. As for the experimental part:
as §2
(§4) Mice were observed daily (including weekends) and weighed weekly. Motor performance was assessed from 40 days of age using the rotarod apparatus to measure the night activity of the mice from 8 p.m.-8 a.m. (LMTB, Berlin). The activity of the animals was recorded individually by a computerized system and assessed daily, including weekends. For statistical evaluation, the rotarod activity was normalized to the mean activity of each animal from day 40 to day 60.
The clinical condition of the mice was monitored daily starting at 40 days. The onset of clinical signs was scored by examining the mice for tremors and/or shaking of the limbs, and the position of one or both hind limbs (hanging rather than splaying out) when the mice were suspended in the air by their tail. The age of clinical onset was determined by the age (days) at which loss of splay or tremors of hind limbs were observed. Examining the mice for the loss of righting reflex determined the end stage of the disease. […]

Data set [3] deals with SOD1 transgenic mice. Briefly: Running wheel (rotarod) night activity of SOD1 transgenic mice. Format: in vivo. Set-up: unit not given here. Here is the method: as §1, §2, §4, §3
In general terms: Falling from the rotarod earlier than controls is read as motor impairment.

Molecules are shown by their SMILES. “And” between values parts separate entries of the source, which are not always exact repeats. Equal values may be shown once. Read-outs that look alike come from different tables or passages of the source.

Consider `C#CCN[C@@H]1CCc2ccccc21` [rasagiline, R(+)-N-propargyl-1-aminoindan], for which the “Mean Survival” value in the data set with SOD1 transgenic mice [1] (rasagiline 0.5 mg/kg per day) was 224 days and 223.8667 days; with SOD1 transgenic mice [1] (rasagiline 2.0 mg/kg per day), 239.8667 days and 239.8677 days. Further, the “increase of life span vs controls” value in the data set with SOD1 transgenic mice [1] (rasagiline 2.0 mg/kg per day, p<0.001) stood at 29 days. In addition, the “signs of overt toxicity” value with SOD1 transgenic mice [2] is recorded as “did not observe any signs of overt toxicity”. Further, the running wheel activity in the data set with SOD1 transgenic mice [3] (rasagiline 0.5 mg/kg, Weeks 9-12) is 10087; in the data set with SOD1 transgenic mice [3] (rasagiline 0.5 mg/kg, Weeks 13-16) it was 9037.14; in the data set with SOD1 transgenic mice [3] (rasagiline 0.5 mg/kg, Weeks 17-20) it was 8124.12; in the data set on SOD1 transgenic mice [3] (rasagiline 0.5 mg/kg, Weeks 21-24), 6070.08; with SOD1 transgenic mice [3] (rasagiline 0.5 mg/kg, Weeks 25-28), 4236.96; in the data set on SOD1 transgenic mice [3] (rasagiline 0.5 mg/kg, Weeks 29-36) it was 1196.69. Besides, the running wheel activity is 11056 with SOD1 transgenic mice [3] (rasagiline 2.0 mg/kg, Weeks 9-12); 9999.44 with SOD1 transgenic mice [3] (rasagiline 2.0 mg/kg, Weeks 13-16); 8787.09 in the data set on SOD1 transgenic mice [3] (rasagiline 2.0 mg/kg, Weeks 17-20); 7873.22 in the data set with SOD1 transgenic mice [3] (rasagiline 2.0 mg/kg, Weeks 21-24); 5902.76 in the data set on SOD1 transgenic mice [3] (rasagiline 2.0 mg/kg, Weeks 25-28); 2147.29 with SOD1 transgenic mice [3] (rasagiline 2.0 mg/kg, Weeks 29-36).

For `Nc1nc2ccc(OC(F)(F)F)cc2s1` [riluzole, 2-amino-6-trifluoromethoxy benzothiazole], the running wheel activity in the data set on SOD1 transgenic mice [3] (riluzole 30 mg/kg, Weeks 9-12) is 9729.58; in the data set on SOD1 transgenic mice [3] (riluzole 30 mg/kg, Weeks 13-16) it was 7556.57; in the data set on SOD1 transgenic mice [3] (riluzole 30 mg/kg, Weeks 17-20) it was 7033.85; with SOD1 transgenic mice [3] (riluzole 30 mg/kg, Weeks 21-24), 4687.05; with SOD1 transgenic mice [3] (riluzole 30 mg/kg, Weeks 25-28) it was 2696.11; in the data set on SOD1 transgenic mice [3] (riluzole 30 mg/kg, Weeks 29-36) it was 1249.13.

The record behind these values is US20040127577A1 (priority 2002, published 2004).
